Test results taken from the supplement of paper PMC10883282.
Where a name gives a salt, the structure may show the parent alone. ± gives the standard deviation of the averaged measurements.

Test system: SYO-1
Test: relative viability vs DMSO control (72 h) (fraction); higher = more viable cells
Method in brief: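 Percent growth from ATPLite readings, averaged over up to triplicate wells, was used as relative viability. Sarcoma cell lines were seeded into 384-well plates for 80–90% confluence, dosed after 24 h, and kept 72 h at 37 °C, 5% CO2. Data were rescaled to a range where 1 is full and 0 is none.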

SMILES | relative viability (0.00017 µM) | relative viability (0.00051 µM) | relative viability (0.00152 µM) | relative viability (0.00457 µM) | relative viability (0.01372 µM) | relative viability (0.04115 µM) | relative viability (0.1235 µM) | relative viability (0.3704 µM) | relative viability (1.111 µM) | relative viability (3.333 µM) | relative viability (10 µM)
CC[C@H](Nc1ncnc2[nH]cnc12)c1nc2cccc(F)c2c(=O)n1-c1ccccc1 [Idelalisib] | 1.01 ± 0.062 | 0.979 ± 0.029 | 1 ± 0.054 | 0.968 ± 0.068 | 0.972 ± 0.069 | 0.942 ± 0.028 | 0.941 ± 0.032 | 0.931 ± 0.068 | 0.911 ± 0.045 | 0.866 ± 0.067 | 0.799 ± 0.079
CC(C)(C)c1cc(NC(=O)Nc2ccc(-c3cn4c(n3)sc3cc(OCCN5CCOCC5)ccc34)cc2)no1 [Quizartinib] | 0.978 ± 0.017 | 0.963 ± 0.02 | 0.973 ± 0.044 | 0.943 ± 0.035 | 0.935 ± 0.034 | 0.9229 ± 0.0014 | 0.873 ± 0.015 | 0.715 ± 0.043 | 0.67 ± 0.046 | 0.646 ± 0.034 | 0.627 ± 0.044
CNC(=O)c1cc(Oc2ccc(NC(=O)Nc3ccc(Cl)c(C(F)(F)F)c3)c(F)c2)ccn1 [Regorafenib] | 1.02 ± 0.039 | 1.022 ± 0.0037 | 1.04 ± 0.05 | 1.01 ± 0.035 | 1.03 ± 0.02 | 0.999 ± 0.05 | 0.954 ± 0.065 | 0.755 ± 0.038 | 0.572 ± 0.022 | 0.476 ± 0.016 | 0.217 ± 0.016
CNC(=O)c1ccc(-c2cnc3ncc(Cc4ccc5ncccc5c4)n3n2)cc1F [Capmatinib] | 0.956 ± 0.039 | 0.962 ± 0.044 | 0.966 ± 0.028 | 0.968 ± 0.015 | 0.97 ± 0.03 | 0.961 ± 0.042 | 0.97 ± 0.033 | 0.967 ± 0.026 | 0.994 ± 0.023 | 1.03 ± 0.03 | 1.01 ± 0.067
COc1cccc2c1C(=O)c1c(O)c3c(c(O)c1C2=O)C[C@@](O)(C(=O)CO)C[C@@H]3O[C@H]1C[C@H](N)[C@H](O)[C@H](C)O1 [Doxorubicin Hydrochloride] | 0.967 ± 0.064 | 0.938 ± 0.048 | 0.899 ± 0.054 | 0.818 ± 0.06 | 0.549 ± 0.038 | 0.29 ± 0.025 | 0.175 ± 0.035 | 0.127 ± 0.015 | 0.0941 ± 0.01 | 0.0937 ± 0.025 | 0.0765 ± 0.011
CO[C@H]1C[C@@H]2CC[C@@H](C)[C@@](O)(O2)C(=O)C(=O)N2CCCC[C@H]2C(=O)O[C@H]([C@H](C)C[C@@H]2CC[C@@H](OP(C)(C)=O)[C@H](OC)C2)CC(=O)[C@H](C)/C=C(\C)[C@@H](O)[C@@H](OC)C(=O)[C@H](C)C[C@H](C)/C=C/C=C/C=C/1C [Ridaforolimus] | 0.941 ± 0.022 | 0.924 ± 0.024 | 0.915 ± 0.026 | 0.89 ± 0.037 | 0.868 ± 0.035 | 0.832 ± 0.041 | 0.79 ± 0.042 | 0.775 ± 0.038 | 0.748 ± 0.056 | 0.707 ± 0.058 | 0.672 ± 0.062
Cc1cc(C)c(/C=C2\C(=O)Nc3ccccc32)[nH]1 [Semaxanib] | 0.922 ± 0.014 | 0.915 ± 0.01 | 0.917 ± 0.014 | 0.908 ± 0.025 | 0.87 ± 0.035 | 0.824 ± 0.056 | 0.774 ± 0.047 | 0.721 ± 0.03 | 0.649 ± 0.046 | 0.632 ± 0.041 | 0.579 ± 0.0071
CN1CCC(COc2cnc(-c3cccc(Cn4nc(-c5cccc(C#N)c5)ccc4=O)c3)nc2)CC1 [Tepotinib] | 1 ± 0.042 | 0.983 ± 0.042 | 0.974 ± 0.063 | 0.919 ± 0.061 | 0.946 ± 0.05 | 0.912 ± 0.038 | 0.916 ± 0.031 | 0.931 ± 0.06 | 0.884 ± 0.037 | 0.824 ± 0.033 | 0.608 ± 0.055
COc1cc2c(Oc3ccc4[nH]c(C)cc4c3F)ncnc2cc1OCCCN1CCCC1 [Cediranib] | 0.965 ± 0.02 | 0.962 ± 0.039 | 0.967 ± 0.04 | 0.946 ± 0.043 | 0.91 ± 0.074 | 0.723 ± 0.036 | 0.5301 ± 0.0011 | 0.471 ± 0.019 | 0.453 ± 0.019 | 0.483 ± 0.012 | 0.482 ± 0.027
C[C@@H](c1ccc2nccn2c1)n1nnc2ncc(-c3cnn(C)c3)nc21 [Volitinib] | 0.96 ± 0.038 | 0.999 ± 0.065 | 1 ± 0.025 | 0.979 ± 0.03 | 0.985 ± 0.024 | 0.992 ± 0.032 | 1.01 ± 0.087 | 0.98 ± 0.051 | 0.996 ± 0.058 | 0.977 ± 0.085 | 1.03 ± 0.047
CC1(C)CNc2cc(NC(=O)c3cccnc3NCc3ccncc3)ccc21 [Motesanib] | 0.962 ± 0.012 | 0.979 ± 0.043 | 0.996 ± 0.05 | 0.974 ± 0.043 | 0.973 ± 0.025 | 0.914 ± 0.036 | 0.866 ± 0.029 | 0.777 ± 0.054 | 0.724 ± 0.021 | 0.648 ± 0.016 | 0.494 ± 0.019
N#CC[C@H](C1CCCC1)n1cc(-c2ncnc3[nH]ccc23)cn1 [Ruxolitinib] | 0.969 ± 0.039 | 0.975 ± 0.034 | 0.958 ± 0.035 | 0.945 ± 0.029 | 0.964 ± 0.026 | 0.969 ± 0.059 | 0.931 ± 0.043 | 0.941 ± 0.095 | 0.945 ± 0.048 | 0.892 ± 0.037 | 0.641 ± 0.014
Cc1nc(NC(=O)N2CCC[C@H]2C(N)=O)sc1-c1ccnc(C(C)(C)C(F)(F)F)c1 [Alpelisib] | 0.975 ± 0.071 | 0.944 ± 0.068 | 0.93 ± 0.049 | 0.919 ± 0.031 | 0.85 ± 0.099 | 0.805 ± 0.095 | 0.735 ± 0.1 | 0.68 ± 0.11 | 0.633 ± 0.063 | 0.6 ± 0.019 | 0.5521 ± 0.0025
CN1CCN(c2ccc3nc(-c4c(N)c5c(F)cccc5[nH]c4=O)[nH]c3c2)CC1 [Dovitinib] | 1.04 ± 0.049 | 1.038 ± 0.0075 | 0.992 ± 0.037 | 0.998 ± 0.03 | 0.974 ± 0.014 | 0.927 ± 0.035 | 0.833 ± 0.0092 | 0.556 ± 0.012 | 0.388 ± 0.025 | 0.17 ± 0.023 | -0.0198 ± 0.0062
